Laboratory results as given in BindingDB's records for doi:10.1016/S0960-894X(01)80278-X (n/a, 1994).
Starred links: 1 amine or outer side, 2 acyl side, 3 side chain; linkers in the order of their positions; H or OH if unused. Non-standard residues stand in square brackets, D forms with d. Residues, ends and D or L forms follow the SMILES beside them. *: point of attachment. X2 = C=CCN([C@@H](C)C(=O)[*:2])[*:1]; X1 = O=C(CN(CC(Br)CBr)[*:1])[*:2]; X3 = O=C(CN(CC(Cl)CCl)[*:1])[*:2]; NAllylGly = C=CCNCC(=O)O; Boc = CC(C)(C)OC(=O)*

Assay: Antiviral activity against HIV-1 in CEM cells

Row | SMILES | IC50 [µM]
1 | CC[C@H](C)[C@H](NC(=O)CN(CC(Cl)CCl)C(=O)[C@H](Cc1ccccc1)NC(=O)OC(C)(C)C)C(=O)N[C@H](C(=O)OC)C(C)C (stereo not given in full) | > 50.4
2 | CC[C@H](C)[C@H](NC(=O)CN(CC(Br)CBr)C(=O)[C@H](Cc1ccccc1)NC(=O)OC(C)(C)C)C(=O)N[C@H](C(=O)OC)C(C)C (stereo not given in full) | 56.7
3 | C=CCN(C(=O)[C@H](Cc1ccccc1)NC(=O)OC(C)(C)C)[C@@H](C)C(=O)N[C@H](C(=O)N[C@H](C(=O)OC)C(C)C)[C@@H](C)CC | > 16.5
4 | C=CCNCC(=O)N[C@H](C(=O)N[C@H](C(=O)OC)C(C)C)[C@@H](C)CC | > 195
5 | C=CCN(CC(=O)N[C@H](C(=O)N[C@H](C(=O)OC)C(C)C)[C@@H](C)CC)C(=O)OC(C)(C)C | > 226
6 | C=CCN(C(=O)[C@H](Cc1ccccc1)NC(=O)[C@H](C)NC(=O)[C@H](C)NC(=O)OC(C)(C)C)[C@@H](C)C(=O)N[C@H](C(=O)N[C@H](C(=O)OC)C(C)C)[C@@H](C)CC (Boc-AAF[X2]IV-OMe) | 3.89
7 | C=CCN(CC(=O)N[C@H](C(=O)N[C@H](C(=O)OC)C(C)C)[C@@H](C)CC)C(=O)[C@H](Cc1ccccc1)NC(=O)[C@H](C)NC(=O)OC(C)(C)C (Boc-AF[NAllylGly]IV-OMe) | 54.1
8 | CC[C@H](C)[C@H](NC(=O)CN(CC(Br)CBr)C(=O)[C@H](Cc1ccccc1)NC(=O)[C@H](C)NC(=O)OC(C)(C)C)C(=O)N[C@H](C(=O)OC)C(C)C (stereo not given in full) (Boc-AF[X1]IV-OMe) | > 610
9 | C=CCN(C(=O)[C@H](Cc1ccccc1)NC(=O)[C@H](C)NC(=O)OC(C)(C)C)[C@@H](C)C(=O)N[C@H](C(=O)N[C@H](C(=O)OC)C(C)C)[C@@H](C)CC (Boc-AF[X2]IV-OMe) | > 296
10 | CC[C@H](C)[C@H](NC(=O)CN(CC(Cl)CCl)C(=O)[C@H](Cc1ccccc1)NC(=O)[C@H](C)NC(=O)OC(C)(C)C)C(=O)N[C@H](C(=O)OC)C(C)C (stereo not given in full) (Boc-AF[X3]IV-OMe) | > 136
11 | C=CCN(CC(=O)N[C@H](C(=O)N[C@H](C(=O)OC)C(C)C)[C@@H](C)CC)C(=O)[C@H](Cc1ccccc1)NC(=O)OC(C)(C)C (Boc-F[NAllylGly]IV-OMe) | > 169
12 | C=CCN(CC(=O)N[C@H](C(=O)N[C@H](C(=O)OC)C(C)C)[C@@H](C)CC)C(=O)[C@H](Cc1ccccc1)NC(=O)[C@H](C)NC(=O)[C@H](C)NC(=O)[C@H](CO)NC(=O)OC(C)(C)C (Boc-SAAF[NAllylGly]IV-OMe) | > 24.4
13 | C=CCN(C(=O)[C@H](Cc1ccccc1)NC(=O)[C@H](C)NC(=O)[C@H](C)NC(=O)[C@H](CO)NC(=O)OC(C)(C)C)[C@@H](C)C(=O)N[C@H](C(=O)N[C@H](C(=O)OC)C(C)C)[C@@H](C)CC (Boc-SAAF[X2]IV-OMe) | > 120
14 | C=CCN(CC(=O)N[C@H](C(=O)N[C@H](C(=O)OC)C(C)C)[C@@H](C)CC)C(=O)[C@H](Cc1ccccc1)NC(=O)[C@H](C)N (H-AF[NAllylGly]IV-OMe) | > 178
15 | C=CCN(CC(=O)N[C@H](C(=O)N[C@H](C(=O)OC)C(C)C)[C@@H](C)CC)C(=O)[C@@H](N)Cc1ccccc1 (H-F[NAllylGly]IV-OMe) | > 204
